Columns and labels:
Format in all cases: cell-based, human
[1] = system: r(G4C2)66-No ATG-GFP mRNA; assay: RNA levels in transfected HEK293T cells by RT-qPCR
Procedure: Measuring RNA Levels in HEK Cells. HEK293T cells were seeded at 2×10^6 in 100 mm dish and incubated at 37° C. overnight. Cells were transfected with 2.5 μg of the (G4C2)66-No ATG-GFP plasmid with Lipofectamine 3000 (Life Technologies) per the manufacturer's protocols. After 5 h, the cells were collected and split into 24-well plate with 5×10^4 cells per well. After 2 h, the compounds were added and incubated for another 24 h.
Total RNA was extracted using a Quick-RNA Miniprep Kit (Zymo Research) per the manufacturer's protocol. Approximately 1 μg of total RNA, as determined by Nanodrop, was used for reverse transcription using qScript Kit (Quantbio) per the manufacturer's protocol. RT-qPCR was performed on a 7900HT Fast Real Time PCR System (Applied Biosystem) using Power SYBR Green Master Mix (Applied Biosystems). Expression levels of mRNAs were normalized to β-actin.
Rnase L Knockdown. HEK293T cells were seeded in growth medium in a 100 mm dish and incubated at 37° C. until ˜80% confluent. Cells were transfected with 2.5 µg (G4C2)66-No-ATG-GFP for 5 h with Lipofectamine 3000 (Life Technologies) per the manufacturer's recommended protocol. Following transfection, the cells were plated in 6-well plates and incubated at 37° C. until ˜80% confluent. Compounds were added in growth medium and incubated for 24 h. Following compound treatment, the siRNA of interest (Table 3) were transfected with RNAiMax (Life Technologies) at a final concentration of 50 nM for 24 h per the manufacturer's recommended protocol. Total RNA was extracted using a Quick-RNA Miniprep Kit (Zymo Research) per the manufacturer's protocol. Intron 1 abundance was assessed by RT-qPCR as described above.

Poly(GP) = Poly(GP) by electrochemiluminescent immunoassay in patient-derived LCLs
Procedure: Measuring Poly(GP) Levels by Electrochemiluminescence. LCLs were seeded in T-25 flash at 400,000 cells/mL in 5 mL of growth medium. After overnight incubation, the cells were treated with compound or ASO for 4 days at 37° C. After the treatment period, the cells were pelleted, and total protein was extracted by incubating with CoIP2 Buffer (50 mM Tris-HCL, pH 7.4, 300 mM NaCl, 5 mM EDTA, 1% (v/v) Triton-X 100, 2% (w/v) sodium dodecyl sulfate, and 0.01% (v/v) protease and phosphatase inhibitors) on ice for 5 min and then sonication (3 s intervals at 35% power for ˜40 s). Detergent was then removed using Pierce™ Detergent Removal Spin Columns following manufacturer's protocol. Protein concentration was measured by Pierce™ BCA Protein Assay Kit.
Levels of poly(GP) were measured using Meso Scale Discovery MSD Gold 96-well Streptavidin SECTOR plates. Both capture and detection antibodies were generated using an anti-poly(GP) antibody kindly provided by the Target ALS Foundation. To serve as the capture antibody, the poly(GP) antibody was conjugated to biotin using EZ-Link™ Sulfo-NHS-LC-Biotin (Thermo Fisher) as per the manufacturer's protocol. To serve as the detection antibody, the poly(GP) antibody was sulfo-tagged using MSD GOLD SULFO-TAG NHS-Ester (Meso Scale Discovery) as per the manufacturer's protocol. The conjugated antibodies were desalted with 40K Zeba™ Spin Desalting Columns (Thermo Fisher Scientific), and their concentrations were determined by Pierce™ BCA Protein Assay Kit.
Briefly, the plates were incubated with 2 μg/ml of anti-poly(GP)-biotin antibody at 4° C. overnight. The wells were then washed three times with 1×TBST [1×Tris-buffered saline (TBS) containing 0.1% (v/v) Tween-20] and blocked with 3% BSA in 1×TBST for 1 h at room temperature (with shaking). The blocking solution was removed, and the wells were washed 3 times with 150 μL of 1×TBST. […] After washing with 150 μL of 1×TBST three times, 1×MSD GOLD Read Buffer was added to each well, and electrochemiluminescence was measured using a SECTOR Imager (MSD). […]

WT C9ORF72 protein = assay: C9ORF72 expression by Western blotting; details: Western blot, relative to β-actin
Procedure: Measuring C9ORF72 Expression Level by Western Blotting. Samples analyzed by Western blot were prepared as described in “Measuring poly(GP) Levels by Electrochemiluminescence”. Approximately 20 μg of total protein was separated on a 10% SDS-polyacrylamide gel, and then transferred to a PVDF membrane. The membrane was washed with 1×TBS and then blocked in 5% milk in 1×TBST for 1 h at room temperature. After washing with 1×TBST, C9orf72 antibody (GeneTex, GTX119776; 1:3000 dilution) was added in 1×TBST containing 5% milk overnight at 4° C. […] The membrane was washed with 1×TBST, and protein expression was quantified using SuperSignal West Pico Chemiluminescent Substrate (Pierce Biotechnology) per the manufacturer's protocol.
To quantify β-actin expression, the membrane was stripped using 1× Stripping Buffer (200 mM glycine, pH 2.2 and 0.1% SDS) followed by washing in 1×TBST. […] The membrane was washed with 1×TBST and incubated with 1:10,000 anti-rabbit IgG horseradish-peroxidase secondary antibody conjugate (Cell Signaling Technology) in 1×TBST containing 5% (w/v) milk for 1 h at room temperature. β-actin protein expression was quantified using SuperSignal West Pico Chemiluminescent Substrate (Pierce Biotechnology) per the manufacturer's protocol. […].

Compound	r(G4C2)66 levels ([1]; HEK293T)	Poly(GP) expression (Poly(GP); 5, 50 and 500 nM for 4 days)	WT C9ORF72 protein levels (WT C9ORF72 protein)	reduction of r(G4C2)exp-containing mRNA ([1]; 500 nM compound)	ability to reduce r(G4C2)exp levels upon knock down of Rnase L by siRNA ([1]; RNase L siRNA versus control siRNA)	reduction of Poly(GP) levels (Poly(GP); 500 nM)	increase in potency over parent compound 3 (Poly(GP); Poly(GP) in LCLs)
Cc1c2ccncc2c(C)c2c1[nH]c1ccc(OCCOCCOCCNCCOCCOCCOc3ccc4[nH]c5c(C)c6ccncc6c(C)c5c4c3)cc12 [Compound 3]	without affecting	dose-dependent decrease	no effect				
CCOC(=O)C1=C(Nc2ccccc2)S/C(=C\c2ccc(OCCOCCOCCOCCNC(=O)CCC(=O)N(CCOCCOCCOc3ccc4[nH]c5c(C)c6ccncc6c(C)c5c4c3)CCOCCOCCOc3ccc4[nH]c5c(C)c6ccncc6c(C)c5c4c3)c(O)c2)C1=O [Compound 7]			unchanged	46±2%	ablated	71±11%	5 fold
